In US20030083237A1, “Anti-angiogenic peptides for cancer treatment” (priority 2001, published 2003):
pIC50: −log10 of the molar value. Ends that are not written are not given here. Peptide text beside a SMILES is read from it.

Tested on: BCE cells (Bovine Capillary Endothelial cells)
Assay type: cell-based
Conditions: for inhibiting the growth of BCE cells (in-vitro inhibition studies, FIG. 2): result in words
Protocol: The inhibition of said peptides on the endothelial cells was performed on BCE cells (Bovine Capillary Endothelial cells) as shown in Example 9. The inhibition of said peptide on the endothelial cells was performed on BCE cells (Folkman et al, Proceedings of the National Academy of Sciences USA. 76: 5217-5221 (1979)). The medium contains 90% DMEM (Dulbecco's Modified Eagle Medium), 10% FBS (fetal bovine serum), and 2 ng/mL of bFGF (basic fibroblast growth factor). A 24-well platelet was used for the growth of the BCE cells. To each well, 8,000-10,000 cells and 0.5 mL of the medium were added. The medium in each of the test wells was replaced by medium containing P1, P2, P3, P4, P5, P6, P7, or AK38 after 12 hours and continue to grow 5-7 days at 37° C. the BCE cells, in comparison to the control samples, to evaluate the inhibition on the growth of endothelial cells. The concentration inhibiting 50% of the cell growth is defined as IC50. […] (FIG. 6)

Compound | inhibiting the growth of BCE cells (in-vitro inhibition studies, FIG. 2) | pIC50
QQWAAQEPHRHSTFIPGTNKWAGLEKNY [Peptide P3, protected form of peptide {3} of AK38 kringle] | minor inhibition effect | 
IVPSLGPPSEQD [Peptide P1, protected form of peptide {1} of AK38 kringle] | none of the four peptides (P1, P2, P6, and P7) is significantly effective | 
ASSSFD [Peptide P7, protected form of peptide {7} of AK38 kringle] | none of the four peptides (P1, P2, P6, and P7) is significantly effective | 
CSCC[C@H](NC(=O)[C@@H](NC(=O)[C@H](Cc1ccc(O)cc1)NC(C)=O)[C@@H](C)O)C(=O)N[C@@H](CC(N)=O)C(=O)N1CCC[C@H]1C(=O)N[C@@H](CCCNC(=N)N)C(=O)N[C@@H](CCCCN)C(=O)N[C@@H](CC(C)C)C(=O)N[C@@H](Cc1ccccc1)C(=O)N[C@@H](CC(=O)O)C(=O)N[C@@H](Cc1ccc(O)cc1)C(N)=O [Peptide P5, Tyr-Thr-Met-Asn-Pro-Arg-Lys-Leu-Phe-Asp-Tyr] (Ac-YTMNPRKLFDY-NH2) | very effective | 7.35
CC[C@H](C)[C@H](NC(=O)[C@H](CC(=O)O)NC(=O)CNC(=O)[C@H](CC(=O)O)NC(=O)[C@@H]1CCCN1C(=O)[C@H](CC(N)=O)NC(=O)[C@H](CCCNC(=N)N)NC(C)=O)C(=O)N[C@@H](CC(N)=O)C(=O)NCC(=O)N1CCC[C@H]1C(=O)N[C@@H](Cc1c[nH]c2ccccc12)C(N)=O [Peptide P4, Arg-Asn-Pro-Asp-Gly-Asp-Ile-Asn-Gly-Pro-Trp] (Ac-RNPDGDINGPW-NH2) | very effective | 7.00
MFGNGKGYRGKKATTVTGTP [Peptide P2, protected form of peptide {2} of AK38 kringle] | none of the four peptides (P1, P2, P6, and P7) is significantly effective | 
Asp-Ile-Pro-Leu (DIPL; printed: Asp-Ile-Pro-Leu) [Peptide P6, protected form of peptide {6} of AK38 kringle] | none of the four peptides (P1, P2, P6, and P7) is significantly effective | 
